Test results published in paper PMC3106415 (Bioorganic & medicinal chemistry, 2010).

Legend:
[1] = target: rat A2A AR (Rattus norvegicus, UniProt P30543); assay: Radioligand binding to rA2A AR
[2] = target: rA2A receptor; conditions: read-out: Ki at rA2A receptor; cited from earlier work

Sequence of rat A2A AR (P30543 whole entry): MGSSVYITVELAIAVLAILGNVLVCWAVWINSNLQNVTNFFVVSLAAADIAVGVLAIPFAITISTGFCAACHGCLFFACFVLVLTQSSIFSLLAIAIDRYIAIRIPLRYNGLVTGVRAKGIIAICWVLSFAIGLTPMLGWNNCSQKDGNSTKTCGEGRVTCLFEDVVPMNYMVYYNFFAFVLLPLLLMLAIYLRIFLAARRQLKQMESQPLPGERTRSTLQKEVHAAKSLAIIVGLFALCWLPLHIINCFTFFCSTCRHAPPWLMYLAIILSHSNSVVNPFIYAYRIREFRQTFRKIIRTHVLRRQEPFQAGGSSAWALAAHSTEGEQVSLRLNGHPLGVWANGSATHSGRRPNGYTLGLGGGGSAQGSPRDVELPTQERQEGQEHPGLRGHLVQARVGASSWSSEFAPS

CCCCCC(=O)Nc1nc(SC)nc2nc(-c3ccco3)nn12 [Compound 11, 2-(2-Furyl)-5-methylthio-7-n-pentylcarbonylamino-[1,2,4]-triazolo[1,5-a]-[1,3,5]triazine]
Ki [1]: 180 to 400 nM

Nc1nc(NCCc2ccc(O)cc2)nc2nc(-c3ccco3)nn12 [ZM241385, 4-(2-[7-amino-2-{2-furyl}{1,2,4}triazolo{2,3-a}{1,3,5,}triazin-5-ylamino]ethyl)phenol]
Ki [2]: 0.21 to 0.5 nM
